Measured values published in patent US20260355323A1, “CEREBLON-RECRUITING BCL-XL/BCL-2 DUAL DEGRADERS” (University of Florida Research Foundation, Incorporated, priority 2022, published 2026).

Assays:
[1] = system: MOLT-4 acute lymphoblastic leukemia cells; experiment: Cell viability, tetrazolium-based MTS assay, MOLT-4; conditions: Homo sapiens, MOLT-4, 48 h; read-out: Anti-Cancer Activity EC50 (48 hr), MOLT-4
Procedure: (§1) Acute lymphoblastic leukemia cells (MOLT-4 and RS4;11) were incubated with increasing concentrations of Bcl-xL/Bcl-2 degraders for 48 h. Cell viability was measured by tetrazolium-based MTS assay.

[2] = system: RS4;11 acute lymphoblastic leukemia cells; experiment: Cell viability, tetrazolium-based MTS assay, RS4;11; conditions: Homo sapiens, RS4;11, 48 h, read-out: Anti-Cancer Activity EC50 (48 hr), RS4
Procedure: as §1

[3] = system: WI-38 irradiation-induced senescent cells (IR-SC); experiment: Senolytic activity, cell viability (PrestoBlue HS), WI-38 IR-SC; type: cell-based; conditions: Homo sapiens, 72 h
Procedure: (§2) To induce senescence in WI-38 and HUVEC, cells were subjected to x-ray irradiation at 20 Gray using X-RAD 320 biological irradiator. Following between 10 to 15 days after irradiation, senescence was induced in cells, and irradiation-induced senescent cells (IR-SC) were then used for cell viability and Western blotting tests.
(§3) WI-38 and HUVEC cells were incubated with increasing concentrations of degraders for 72 h. Cell viability was measured using PrestoBlue HS cell viability reagent.

[4] = system: WI-38 NC; experiment: Senolytic activity, cell viability (PrestoBlue HS), WI-38 NC; type: cell-based; conditions: Homo sapiens, 72 h
Procedure: as §3

[5] = system: HUVEC irradiation-induced senescent cells (IR-SC); experiment: Senolytic activity, cell viability (PrestoBlue HS), HUVEC IR-SC; type: cell-based; conditions: Homo sapiens, 72 h
Procedure: as §2, §3

EC50 [1] [nM]	EC50 [2] [nM]	SMILES	EC50 [3] [nM]	EC50 [4] [nM]	EC50 [5] [nM]
< 1	< 1	CC1(CN2CCN(C(=O)CN3CCN(C(=O)CCCCNc4cccc5c4C(=O)N(C4CCC(=O)NC4=O)C5=O)CC3)CC2)CCC(c2ccc(Cl)cc2)=C(CN2CCN(c3ccc(C(=O)NS(=O)(=O)c4ccc(N[C@H](CCN5CCOCC5)CSc5ccccc5)c(S(=O)(=O)C(F)(F)F)c4)cc3)CC2)C1 (stereo partly drawn) [Compound 14, 4-(4-((4′-chloro-4-((4-(2-(4-(5-((2-(2,6-dioxopiperidin-3-yl)-1,3-dioxoisoindolin-4-yl)amino)pentanoyl)piperazin-1-yl)acetyl)piperazin-1-yl)methyl)-4-methyl-3,4,5,6-tetrahydro-[1,1′-biphenyl]-2-yl)methyl)piperazin-1-yl)-N-((4-(((R)-4-morpholino-1-(phenylthio)butan-2-yl)amino)-3-((trifluoromethyl)sulfonyl)phenyl)sulfonyl)benzamide]	10000 to 100000	> 10000	–
< 1	< 1	C[C@@]1(CN2CCN(C(=O)CN3CCN(CCCc4ccc5c(c4)CN(C4CCC(=O)NC4=O)C5=O)CC3)CC2)CCC(c2ccc(Cl)cc2)=C(CN2CCN(c3ccc(C(=O)NS(=O)(=O)c4ccc(N[C@H](CCN5CCCOCC5)CSc5ccccc5)c(S(=O)(=O)C(F)(F)F)c4)cc3)CC2)C1 (stereo partly drawn) [Compound 6, N-((4-(((R)-4-(1,4-oxazepan-4-yl)-1-(phenylthio)butan-2-yl)amino)-3-((trifluoromethyl)sulfonyl)phenyl)sulfonyl)-4-(4-(((4R)-4′-chloro-4-((4-(2-(4-(3-(2-(2,6-dioxopiperidin-3-yl)-1-oxoisoindolin-5-yl)propyl)piperazin-1-yl)acetyl)piperazin-1-yl)methyl)-4-methyl-3,4,5,6-tetrahydro-[1,1′-biphenyl]-2-yl)methyl)piperazin-1-yl)benzamide]	1 to 10	> 10000	–
< 1	< 1	CC1(CN2CCN(C(=O)CN3CCN(C(=O)COCCNc4cccc5c4C(=O)N(C4CCC(=O)NC4=O)C5=O)CC3)CC2)CCC(c2ccc(Cl)cc2)=C(CN2CCN(c3ccc(C(=O)NS(=O)(=O)c4ccc(N[C@H](CCN5CCOCC5)CSc5ccccc5)c(S(=O)(=O)C(F)(F)F)c4)cc3)CC2)C1 (stereo partly drawn) [Compound 15, 4-(4-((4′-chloro-4-((4-(2-(4-(2-(2-((2-(2,6-dioxopiperidin-3-yl)-1,3-dioxoisoindolin-4-yl)amino)ethoxy)acetyl)piperazin-1-yl)acetyl)piperazin-1-yl)methyl)-4-methyl-3,4,5,6-tetrahydro-[1,1′-biphenyl]-2-yl)methyl)piperazin-1-yl)-N-((4-(((R)-4-morpholino-1-30 (phenylthio)butan-2-yl)amino)-3-((trifluoromethyl)sulfonyl)phenyl)sulfonyl)benzamide]	10000 to 100000	> 10000	–
< 1	< 1	CC1(CN2CCN(C(=O)CN3CCN(C(=O)COc4cccc5c4C(=O)N(C4CCC(=O)NC4=O)C5=O)CC3)CC2)CCC(c2ccc(Cl)cc2)=C(CN2CCN(c3ccc(C(=O)NS(=O)(=O)c4ccc(N[C@H](CCN5CCOCC5)CSc5ccccc5)c(S(=O)(=O)C(F)(F)F)c4)cc3)CC2)C1 (stereo partly drawn) [Compound 18, 4-(4-((4′-chloro-4-((4-(2-(4-(2-((2-(2,6-dioxopiperidin-3-yl)-1,3-dioxoisoindolin-4-yl)oxy)acetyl)piperazin-1-yl)acetyl)piperazin-1-yl)methyl)-4-methyl-3,4,5,6-tetrahydro-[1,1′-biphenyl]-2-yl)methyl)piperazin-1-yl)-N-((4-(((R)-4-morpholino-1-(phenylthio)butan-2-yl)amino)-3-((trifluoromethyl)sulfonyl)phenyl)sulfonyl)benzamide]	10 to 100	> 10000	–

Continued, molecule first:

SMILES	EC50 [1] [nM]	EC50 [2] [nM]	EC50 [3] [nM]	EC50 [4] [nM]	EC50 [5] [nM]
C[C@@]1(CN2CCN(c3ccc4c(c3)C(=O)N(C3CCC(=O)NC3=O)C4)CC2)CCC(c2ccc(Cl)cc2)=C(CN2CCN(c3ccc(C(=O)NS(=O)(=O)c4ccc(N[C@H](CCN5CCCOCC5)CSc5ccccc5)c(S(=O)(=O)C(F)(F)F)c4)cc3)CC2)C1 (stereo partly drawn) [Compound 133, N-((4-(((R)-4-(1,4-oxazepan-4-yl)-1-(phenylthio)butan-2-yl)amino)-3-((trifluoromethyl)sulfonyl)phenyl)sulfonyl)-4-(4-(((4R)-4′-chloro-4-((4-(2-(2,6-dioxopiperidin-3-yl)-3-oxoisoindolin-5-yl)piperazin-1-yl)methyl)-4-methyl-3,4,5,6-tetrahydro-[1,1′-biphenyl]-2-yl)methyl)piperazin-1-yl)benzamide]	< 1	1 to 10	10 to 100	–	< 1
C[C@@]1(CN2CCN(C(=O)CN3CCC(CCc4ccc5c(c4)CN(C4CCC(=O)NC4=O)C5=O)CC3)CC2)CCC(c2ccc(Cl)cc2)=C(CN2CCN(c3ccc(C(=O)NS(=O)(=O)c4ccc(N[C@H](CCN5CCCOCC5)CSc5ccccc5)c(S(=O)(=O)C(F)(F)F)c4)cc3)CC2)C1 (stereo partly drawn) [Compound 7, N-((4-(((R)-4-(1,4-oxazepan-4-yl)-1-(phenylthio)butan-2-yl)amino)-3-((trifluoromethyl)sulfonyl)phenyl)sulfonyl)-4-(4-(((4R)-4′-chloro-4-((4-(2-(4-(2-(2-(2,6-dioxopiperidin-3-yl)-1-oxoisoindolin-5-yl)ethyl)piperidin-1-yl)acetyl)piperazin-1-yl)methyl)-4-methyl-3,4,5,6-tetrahydro-[1,1′-biphenyl]-2-yl)methyl)piperazin-1-yl)benzamide]	< 1	< 1	1 to 10	> 10000	–
C[C@@]1(CN2CCN(C(=O)CN3CCC(CN4CCN(c5ccc6c(c5)CN(C5CCC(=O)NC5=O)C6=O)CC4)CC3)CC2)CCC(c2ccc(Cl)cc2)=C(CN2CCN(c3ccc(C(=O)NS(=O)(=O)c4ccc(N[C@H](CCN5CCCOCC5)CSc5ccccc5)c(S(=O)(=O)C(F)(F)F)c4)cc3)CC2)C1 (stereo partly drawn) [Compound 8, N-((4-(((R)-4-(1,4-oxazepan-4-yl)-1-(phenylthio)butan-2-yl)amino)-3-((trifluoromethyl)sulfonyl)phenyl)sulfonyl)-4-(4-(((4R)-4′-chloro-4-((4-(2-(4-((4-(2-(2,6-dioxopiperidin-3-yl)-1-oxoisoindolin-5-yl)piperazin-1-yl)methyl)piperidin-1-yl)acetyl)piperazin-1-yl)methyl)-4-methyl-3,4,5,6-tetrahydro-[1,1′-biphenyl]-2-yl)methyl)piperazin-1-yl)benzamide]	< 1	< 1	1 to 10	> 10000	–
C[C@@]1(CN2CCN(C(=O)CCCN3CCC(CN4CCN(c5ccc6c(c5)CN(C5CCC(=O)NC5=O)C6=O)CC4)CC3)CC2)CCC(c2ccc(Cl)cc2)=C(CN2CCN(c3ccc(C(=O)NS(=O)(=O)c4ccc(N[C@H](CCN5CCCOCC5)CSc5ccccc5)c(S(=O)(=O)C(F)(F)F)c4)cc3)CC2)C1 (stereo partly drawn) [Compound 9, N-((4-(((R)-4-(1,4-oxazepan-4-yl)-1-(phenylthio)butan-2-yl)amino)-3-((trifluoromethyl)sulfonyl)phenyl)sulfonyl)-4-(4-(((4R)-4′-chloro-4-((4-(4-(4-((4-(2-(2,6-dioxopiperidin-3-yl)-1-oxoisoindolin-5-yl)piperazin-1-yl)methyl)piperidin-1-yl)butanoyl)piperazin-1-yl)methyl)-4-methyl-3,4,5,6-tetrahydro-[1,1′-biphenyl]-2-yl)methyl)piperazin-1-yl)benzamide]	< 1	< 1	10 to 100	> 10000	–
C[C@@]1(CN2CCN(C(=O)CN3CCC(C#Cc4ccc5c(c4)CN(C4CCC(=O)NC4=O)C5=O)CC3)CC2)CCC(c2ccc(Cl)cc2)=C(CN2CCN(c3ccc(C(=O)NS(=O)(=O)c4ccc(N[C@H](CCN5CCCOCC5)CSc5ccccc5)c(S(=O)(=O)C(F)(F)F)c4)cc3)CC2)C1 (stereo partly drawn) [Compound 5, N-((4-(((R)-4-(1,4-oxazepan-4-yl)-1-(phenylthio)butan-2-yl)amino)-3-((trifluoromethyl)sulfonyl)phenyl)sulfonyl)-4-(4-(((4R)-4′-chloro-4-((4-(2-(4-((2-(2,6-dioxopiperidin-3-yl)-1-oxoisoindolin-5-yl)ethynyl)piperidin-1-yl)acetyl)piperazin-1-yl)methyl)-4-methyl-3,4,5,6-tetrahydro-[1,1′-biphenyl]-2-yl)methyl)piperazin-1-yl)benzamide]	< 1	< 1	10 to 100	> 10000	–
C[C@@]1(CN2CCN(C(=O)CCCN3CCN(c4ccc5c(c4)CN(C4CCC(=O)NC4=O)C5=O)CC3)CC2)CCC(c2ccc(Cl)cc2)=C(CN2CCN(c3ccc(C(=O)NS(=O)(=O)c4ccc(N[C@H](CCN5CCCOCC5)CSc5ccccc5)c(S(=O)(=O)C(F)(F)F)c4)cc3)CC2)C1 (stereo partly drawn) [Compound 2, N-((4-(((R)-4-(1,4-oxazepan-4-yl)-1-(phenylthio)butan-2-yl)amino)-3-((trifluoromethyl)sulfonyl)phenyl)sulfonyl)-4-(4-(((4R)-4′-chloro-4-((4-(4-(4-(2-(2,6-dioxopiperidin-3-yl)-1-oxoisoindolin-5-yl)piperazin-1-yl)butanoyl)piperazin-1-yl)methyl)-4-methyl-3,4,5,6-tetrahydro-[1,1′-biphenyl]-2-yl)methyl)piperazin-1-yl)benzamide]	< 1	< 1	1 to 10	> 10000	–
